For the data set, the system named is maize tissue pools (tassel, ear, leaf, root, stem). The data set can be described thus: siRNA profiling microarray assay of mts-siRNA sequences across maize tissues. The note with it: for 01DKD2 V8-V9 Tassel relative signal value: germplasm 01DKD2, V8-V9 tassel; for 01DKD2 V10-V12 Tassel relative signal value: germplasm 01DKD2, V10-V12 tassel; for 01DKD2 Other Tissue relative signal value: germplasm 01DKD2, combined signals from other tissue; for LH244 V8-V9 Tassel relative signal value: germplasm LH244, V8-V9 tassel; for LH244 V10-V12 Tassel relative signal value: germplasm LH244, V10-V12 tassel; for LH244 Other Tissue relative signal value: germplasm LH244, combined signals from other tissue. The procedure: A siRNA profiling microarray assay was performed using μParaflo® Microfluidics chips provided by LC Sciences LLC (Houston, Tex., USA) with 1,200 sequences selected from the thousands of mts-siRNA sequences identified from the differential bioinformatic analysis. The microarray chips contained triplicate probes of the complementary sequence for each of the 1,200 mts-siRNA sequences. Total RNA was purified from 26 maize tissue pools (duplicate or triplicate tissue pools) from either LH244 (ATCC deposit number PTA-1173) or 01DKD2 (I294213) (ATCC deposit number PTA-7859) inbred plants. Each of the 26 RNA samples were hybridized with the microarray chips that contain probes for the 1,200 mts-siRNA. Hybridization images were collected using a GenePix® 4000B laser scanner (Molecular Devices, Sunnyvale, Calif.) and digitized using Array-Pro® Analyzer image analysis software (Media Cybernetics, Rockville, Md.). Relative signal values were derived by background subtraction and normalization. Differentially expressed signals were determined by t-test with p<0.05. From the microarray analysis, about 500 mts-siRNA from the 1,200 were identified as being highly tassel-specific.
Selected mts-siRNA sequences aligning to one of the six cDNA sequences were used for further microarray analysis to determine differential expression across maize tissues. Microarray analysis for mts-siRNA sequences of normalized signal values for V8-V9 tassel, V10-V12 tassel, or combined signals from the other tissue for maize germplasm LH244 and 01DKD2 is presented in Tables 3-10. […] Signal value results are measured as relative signal values and standard error (p<0.05) is represented by (STDR). […] The mts-siRNA sequence corresponds to the sense or antisense strand of the corresponding mts-siRNA target sequence in the cDNA sequence. The mts-siRNA sequence may have a single nucleotide, a two nucleotide, or a three nucleotide mismatch with the aligned portion of the cDNA sequence, and the mts-siRNA sequence may align to the sense strand or antisense strand of the cDNA sequence. The mts-siRNA sequences provided here are found across different maize germplasms.

As for “SEQ ID NO: 56: mts-siRNA sequence aligning to cDNA SEQ ID NO: 20 (TACACAGTGTCGTCCTCTTCGT; expressed or natural sequence)”, the “01DKD2 V8-V9 Tassel relative signal value” was determined as 138.5, the “01DKD2 V10-V12 Tassel relative signal value” turned out to be 599.5, the “01DKD2 Other Tissue relative signal value” turned out to be 19.3 and the “LH244 V8-V9 Tassel relative signal value” is listed as 261. The “LH244 V10-V12 Tassel relative signal value” is recorded as 692 and the “LH244 Other Tissue relative signal value” was 49.5.

For the substance “SEQ ID NO: 57: mts-siRNA sequence aligning to cDNA SEQ ID NO: 20 (GACATTTGCAGTTCTATGGTGT; expressed or natural sequence)”, the “01DKD2 V8-V9 Tassel relative signal value” is 29, the “01DKD2 V10-V12 Tassel relative signal value” amounted to 134.5, the “01DKD2 Other Tissue relative signal value” was found to be 3.8 and the “LH244 V8-V9 Tassel relative signal value” turned out to be 126.5. Further, the “LH244 V10-V12 Tassel relative signal value” is reported as 248 and the “LH244 Other Tissue relative signal value” is 2.4.

“SEQ ID NO: 58: mts-siRNA sequence aligning to cDNA SEQ ID NO: 20 (CGAGGTACCAACTAACATCGGT; expressed or natural sequence)”: the “01DKD2 V8-V9 Tassel relative signal value” came to 88.5, the “01DKD2 V10-V12 Tassel relative signal value” was determined as 327, the “01DKD2 Other Tissue relative signal value” was determined as 2 and the “LH244 V8-V9 Tassel relative signal value” is on record as 215.5. For the same substance, the “LH244 V10-V12 Tassel relative signal value” worked out at 349 and the “LH244 Other Tissue relative signal value” is given as 0.7.

In the case of “SEQ ID NO: 59: mts-siRNA sequence aligning to cDNA SEQ ID NO: 20 (ATGCCAAAGGTACCGATGTTAG; expressed or natural sequence)”, the “01DKD2 V8-V9 Tassel relative signal value” is listed as 202, the “01DKD2 V10-V12 Tassel relative signal value” came to 811.5, the “01DKD2 Other Tissue relative signal value” turned out to be 0.3 and the “LH244 V8-V9 Tassel relative signal value” turned out to be 789. Besides, the “LH244 V10-V12 Tassel relative signal value” came to 1262.7 and the “LH244 Other Tissue relative signal value” was 4.1.

As to “SEQ ID NO: 60: mts-siRNA sequence aligning to cDNA SEQ ID NO: 20 (CGTCGTGCAGCTGGTCACCGGT; expressed or natural sequence)”, the “01DKD2 V8-V9 Tassel relative signal value” came to 75.5, the “01DKD2 V10-V12 Tassel relative signal value” is on record as 303, the “01DKD2 Other Tissue relative signal value” is given as 9.3 and the “LH244 V8-V9 Tassel relative signal value” came to 141.5. Further, the “LH244 V10-V12 Tassel relative signal value” was found to be 265.7 and the “LH244 Other Tissue relative signal value” is listed as 5.8.

As for “SEQ ID NO: 61: mts-siRNA sequence aligning to cDNA SEQ ID NO: 21 (CTGTGATGTAGAAGCCCAGAC; expressed or natural sequence)”, the “01DKD2 V8-V9 Tassel relative signal value” was 461, the “01DKD2 V10-V12 Tassel relative signal value” is 454, the “01DKD2 Other Tissue relative signal value” was found to be 8 and the “LH244 V8-V9 Tassel relative signal value” stood at 850.5. In addition, the “LH244 V10-V12 Tassel relative signal value” was determined as 334.7 and the “LH244 Other Tissue relative signal value” turned out to be 9.4.

For the substance “SEQ ID NO: 62: mts-siRNA sequence aligning to cDNA SEQ ID NO: 21 (CAAATGAGTCATCGAAGCTGT; expressed or natural sequence)”, the “01DKD2 V8-V9 Tassel relative signal value” was found to be 13.5, the “01DKD2 V10-V12 Tassel relative signal value” is listed as 15.5, the “01DKD2 Other Tissue relative signal value” is on record as 1 and the “LH244 V8-V9 Tassel relative signal value” worked out at 44.5. In addition, the “LH244 V10-V12 Tassel relative signal value” was found to be 11.3 and the “LH244 Other Tissue relative signal value” was found to be 1.8.

As to “SEQ ID NO: 63: mts-siRNA sequence aligning to cDNA SEQ ID NO: 21 (TAGATCACTCGGGTCGCCACA; expressed or natural sequence)”, the “01DKD2 V8-V9 Tassel relative signal value” is reported as 14.5, the “01DKD2 V10-V12 Tassel relative signal value” was 18, the “01DKD2 Other Tissue relative signal value” amounted to 1.5 and the “LH244 V8-V9 Tassel relative signal value” was determined as 34.5. Further, the “LH244 V10-V12 Tassel relative signal value” turned out to be 11.7 and the “LH244 Other Tissue relative signal value” came to 3.2.

For “SEQ ID NO: 64: mts-siRNA sequence aligning to cDNA SEQ ID NO: 21 (GCATATATGTGATGAAGACCG; expressed or natural sequence)”, the “01DKD2 V8-V9 Tassel relative signal value” was 13.5, the “01DKD2 V10-V12 Tassel relative signal value” worked out at 9, the “01DKD2 Other Tissue relative signal value” was 1.3 and the “LH244 V8-V9 Tassel relative signal value” is reported as 23. Also, the “LH244 V10-V12 Tassel relative signal value” is 13.7 and the “LH244 Other Tissue relative signal value” is recorded as 1.8.

Consider “SEQ ID NO: 65: mts-siRNA sequence aligning to cDNA SEQ ID NO: 21 (CGAATTGATTCCACCCATTCC; expressed or natural sequence)”, for which the “01DKD2 V8-V9 Tassel relative signal value” was 444.5, the “01DKD2 V10-V12 Tassel relative signal value” is given as 454.5, the “01DKD2 Other Tissue relative signal value” amounted to 12 and the “LH244 V8-V9 Tassel relative signal value” is 811.5. The “LH244 V10-V12 Tassel relative signal value” was 260.3 and the “LH244 Other Tissue relative signal value” is 5.8.

As for “SEQ ID NO: 66: mts-siRNA sequence aligning to cDNA SEQ ID NO: 21 (TGGTCATACACTAGATAGGGC; expressed or natural sequence)”, the “01DKD2 V8-V9 Tassel relative signal value” was 61, the “01DKD2 V10-V12 Tassel relative signal value” was determined as 55.5, the “01DKD2 Other Tissue relative signal value” was 2.8 and the “LH244 V8-V9 Tassel relative signal value” is on record as 199.5. Further, the “LH244 V10-V12 Tassel relative signal value” worked out at 48 and the “LH244 Other Tissue relative signal value” is given as 1.9.

In the case of “SEQ ID NO: 67: mts-siRNA sequence aligning to cDNA SEQ ID NO: 21 (CCTATCTAGTGTATGACCAAT; expressed or natural sequence)”, the “01DKD2 V8-V9 Tassel relative signal value” turned out to be 123.5, the “01DKD2 V10-V12 Tassel relative signal value” is 107, the “01DKD2 Other Tissue relative signal value” came to 4.3 and the “LH244 V8-V9 Tassel relative signal value” is 216. For the same substance, the “LH244 V10-V12 Tassel relative signal value” was 62 and the “LH244 Other Tissue relative signal value” came out at 3.3.

In the case of “SEQ ID NO: 68: mts-siRNA sequence aligning to cDNA SEQ ID NO: 21 (GAACAGTGATTTTATGAGCAA; expressed or natural sequence)”, the “01DKD2 V8-V9 Tassel relative signal value” is on record as 98, the “01DKD2 V10-V12 Tassel relative signal value” amounted to 96, the “01DKD2 Other Tissue relative signal value” is given as 2.5 and the “LH244 V8-V9 Tassel relative signal value” turned out to be 265. Also, the “LH244 V10-V12 Tassel relative signal value” is recorded as 85.3 and the “LH244 Other Tissue relative signal value” amounted to 5.

“SEQ ID NO: 69: mts-siRNA sequence aligning to cDNA SEQ ID NO: 21 (GCTCATAAAATCACTGTTCAT; expressed or natural sequence)”: the “01DKD2 V8-V9 Tassel relative signal value” was determined as 309.5, the “01DKD2 V10-V12 Tassel relative signal value” was 282.5, the “01DKD2 Other Tissue relative signal value” is reported as 9.8 and the “LH244 V8-V9 Tassel relative signal value” came to 516. In addition, the “LH244 V10-V12 Tassel relative signal value” worked out at 185 and the “LH244 Other Tissue relative signal value” came to 11.2.

As for “SEQ ID NO: 70: mts-siRNA sequence aligning to cDNA SEQ ID NO: 22 (CATGCACTGGTGAGTCACTGTTG; expressed or natural sequence)”, the “01DKD2 V8-V9 Tassel relative signal value” came to 3, the “01DKD2 V10-V12 Tassel relative signal value” came out at 873, the “01DKD2 Other Tissue relative signal value” stood at 4 and the “LH244 V8-V9 Tassel relative signal value” was determined as 56.5. The “LH244 V10-V12 Tassel relative signal value” came to 694 and the “LH244 Other Tissue relative signal value” is given as 1.8.

As to “SEQ ID NO: 71: mts-siRNA sequence aligning to cDNA SEQ ID NO: 22 (AGCTATCGATTCCCTAAGTGCCA; expressed or natural sequence)”, the “01DKD2 V8-V9 Tassel relative signal value” was found to be 46, the “01DKD2 V10-V12 Tassel relative signal value” was 1943.5, the “01DKD2 Other Tissue relative signal value” is recorded as 2.3 and the “LH244 V8-V9 Tassel relative signal value” was determined as 1125.5. Moreover, the “LH244 V10-V12 Tassel relative signal value” is reported as 2380 and the “LH244 Other Tissue relative signal value” came to 1.6.

Take “SEQ ID NO: 72: mts-siRNA sequence aligning to cDNA SEQ ID NO: 22 (GGCCTCCCTTCCCTATGGTAGCC; expressed or natural sequence)”: the “01DKD2 V8-V9 Tassel relative signal value” is given as 332.5, the “01DKD2 V10-V12 Tassel relative signal value” is 530, the “01DKD2 Other Tissue relative signal value” came out at 233.3 and the “LH244 V8-V9 Tassel relative signal value” amounted to 323.5. For the same substance, the “LH244 V10-V12 Tassel relative signal value” is 325.7 and the “LH244 Other Tissue relative signal value” is on record as 1324.8.

(Values after patent US20170029841A1, “METHODS AND COMPOSITIONS FOR SELECTIVE REGULATION OF PROTEIN EXPRESSION” (priority 2015, published 2017).)
